# Key:
# 6169 mRNA [1] = assay: 6169 mRNA in Marmoset livers (TaqMan); format: in vivo
# From the text: (§1) This example describes the TaqMan™ procedure. The Taqman™ procedure is a quantitative, reverse transcription PCR-based approach for detecting mRNA. The RT-PCR reaction exploits the 5′ nuclease activity of AmpliTaq Gold™ DNA Polymerase to cleave a TaqMan™ probe during PCR. Briefly, cDNA was generated from the samples of interest, e.g., heart, kidney, liver, skeletal muscle, and various vessels, and used as the starting material for PCR amplification. In addition to the 5′ and 3′ gene-specific primers, a gene-specific oligonucleotide probe (complementary to the region being amplified) was included in the reaction (i.e., the Taqman™ probe). […]
# (§2) During the PCR reaction, cleavage of the probe separates the reporter dye and the quencher dye, resulting in increased fluorescence of the reporter. Accumulation of PCR products is detected directly by monitoring the increase in fluorescence of the reporter dye. When the probe is intact, the proximity of the reporter dye to the quencher dye results in suppression of the reporter fluorescence. […]
# 53656 mRNA = 53656 mRNA in livers of Marmosets (TaqMan); format: in vivo
# 8921 mRNA = 8921 mRNA expression in marmosets; format: in vivo
# 554 mRNA = 554 mRNA in livers of African Green Monkeys, cholesterol; format: in vivo
# 112091 = 112091 expression in livers of African Green Monkeys, cholesterol; format: in vivo
# 6169 mRNA [2] = assay: 6169 mRNA in liver of African Green Monkeys, lipid feeding (TaqMan); format: in vivo; settings: feeding / in the diet
# 43969 = 43969 expression in livers of ApoE knock-out mice administered cholesterol (TaqMan); format: in vivo
# From the text: as §1, §2
# 9325 mRNA = 9325 mRNA in liver of ApoE knockout mice, cholesterol feeding (TaqMan); format: in vivo; settings: two and six months of cholesterol feeding of ApoE knockout mice
# From the text: as §1, §2
# 17729 mRNA = 17729 mRNA in ApoE knockout mouse models, cholesterol feeding (TaqMan); format: in vivo
# From the text: as §1, §2
# 9235 mRNA = 9235 mRNA in livers of African Green Monkeys, cholesterol (TaqMan); format: in vivo; settings: p=0.09
# From the text: as §1, §2
# 10653 mRNA [3] = assay: 10653 mRNA in livers of African Green Monkeys, cholesterol (TaqMan); format: in vivo; settings: p=0.05
# From the text: as §1, §2
# 19319 mRNA = 19319 mRNA in ApoE knock-out mice, cholesterol (TaqMan); format: in vivo
# From the text: as §1, §2
# 2569654 mRNA [4] = assay: 2569654 mRNA in livers of ApoE knock out mice with cholesterol feeding (TaqMan); format: in vivo; settings: livers of ApoE knock out (KO) mice with cholesterol feeding
# From the text: as §1, §2
# 10653 mRNA [5] = assay: 10653 mRNA in liver of ApoE knockout mice, cholesterol feeding (TaqMan); format: in vivo; settings: two and six months of cholesterol feeding of ApoE knockout mice
# From the text: as §1, §2
# 54946 mRNA = 54946 mRNA in livers of Apo E knock out mice, cholesterol (microarray or RT-PCR); format: in vivo; settings: livers of Apo E knock out mice relative to wild-type controls, p=0.001
# isolated rat arterioles = settings: compared to basal tone; cited from earlier work
# 10653 mRNA [6] = assay: 10653 mRNA in livers of marmosets treated with lipid-lowering therapies (TaqMan); format: in vivo
# 10102 mRNA = 10102 mRNA regulation by lipid lowering drugs (TaqMan)
# 9123 mRNA = 9123 mRNA in livers of marmosets treated with lipid-lowering therapies (TaqMan); format: in vivo
# From the text: as §1, §2
# 8701 mRNA = 8701 mRNA in livers of marmosets treated with lipid-lowering therapies (TaqMan); format: in vivo
# 7301 mRNA = 7301 mRNA in livers of marmosets treated with lipid-lowering therapies (TaqMan); format: in vivo
# From the text: as §1, §2
# 9462 mRNA = 9462 mRNA regulation by lipid lowering drugs (TaqMan)
# From the text: as §1, §2
# 2569654 mRNA [7] = assay: 2569654 mRNA in marmoset models (TaqMan); format: in vivo
# From the text: (§3) This example describes the TaqMan™ procedure. The Taqman™ procedure is a quantitative, reverse transcription PCR-based approach for detecting mRNA. The RT-PCR reaction exploits the 5′ nuclease activity of AmpliTaq Gold™ DNA Polymerase to cleave a TaqMan™ probe during PCR. Briefly, cDNA was generated from the samples of interest, e.g., heart, kidney, liver, skeletal muscle, and various vessels, and used as the starting material for PCR amplification. In addition to the 5′ and 3′ gene-specific primers, a gene-specific oligonucleotide probe (complementary to the region being amplified) was included in the reaction (i.e., the Taqman™ probe). The TaqMan™ probe includes the oligonucleotide with a fluorescent reporter dye covalently linked to the 5′ end of the probe (such as FAM (6-carboxyfluorescein), TET (6-carboxy4,7,2′,7′-tetrachlorofluorescein), JOE (6-carboxy-4,5-dichloro-2,7-dimethoxyfluorescein), or VIC) and a quencher dye (TAMRA (6-carboxy-N,N,N′,N′-tetramethylrhodamine) at the 3′ end of the probe.
# (§4) During the PCR reaction, cleavage of the probe separates the reporter dye and the quencher dye, resulting in increased fluorescence of the reporter. Accumulation of PCR products is detected directly by monitoring the increase in fluorescence of the reporter dye. When the probe is intact, the proximity of the reporter dye to the quencher dye results in suppression of the reporter fluorescence. During PCR, if the target of interest is present, the probe specifically anneals between the forward and reverse primer sites. The 5′-3′ nucleolytic activity of the AmpliTaq™ Gold DNA Polymerase cleaves the probe between the reporter and the quencher only if the probe hybridizes to the target. The probe fragments are then displaced from the target, and polymerization of the strand continues. The 3′ end of the probe is blocked to prevent extension of the probe during PCR. […] RNA was prepared using the trizol method and treated with DNase to remove contaminating genomic DNA. cDNA was synthesized using standard techniques.
# 3533 mRNA = 3533 mRNA regulation by lipid lowering drugs (TaqMan)
# From the text: as §3, §4
# coronary arteries = settings: disruption of microtubules; cited from earlier work
# 2552 mRNA = 2552 mRNA in marmoset livers (TaqMan); format: in vivo
# 9380 mRNA = 9380 mRNA in livers of marmosets (TaqMan); format: in vivo
# 1261 mRNA = 1261 mRNA in statically cultured or shear-stressed cells (TaqMan); format: cell-based
# From the text: as §3, §4
# isolated hepatocytes = settings: via the CCK-B receptor; cited from earlier work
# [8] = system: serine/threonine kinase Akt; settings: primary human peripheral blood monocytes; cited from earlier work
# 261 mRNA = 261 mRNA in cultured human monocytes and macrophages (TaqMan); format: cell-based
# From the text: as §1, §2
# 9035 mRNA = 9035 mRNA in cultured human monocytes and macrophages (TaqMan); format: cell-based; settings: 18 hours of stimulation
# From the text: as §1, §2
# 12282 mRNA = 12282 mRNA in cultured human monocytes and macrophages (TaqMan); format: cell-based; settings: 18 hours of stimulation
# From the text: as §1, §2
# Syk = assay: 1673 (Syk) expression in monocytes and macrophages (TaqMan); format: cell-based; settings: monocytes or macrophages
# From the text: as §1, §2
# 33556 mRNA = 33556 mRNA in cultured human macrophages (TaqMan); format: cell-based; settings: 18h of stimulation
# From the text: as §1, §2
molecule,measurement,setting,value
COCc1c(C(C)C)nc(C(C)C)c(/C=C/[C@@H](O)C[C@@H](O)CC(=O)O)c1-c1ccc(F)cc1 [cerivastatin],6169 mRNA upregulated,6169 mRNA [1],2.4 fold
same,53656 mRNA upregulated,53656 mRNA,1.4 fold
same,increase in 8921 mRNA expression,8921 mRNA,1.4 fold
CC(C)CCC[C@@H](C)[C@H]1CC[C@H]2[C@@H]3CC=C4C[C@@H](O)CC[C@]4(C)[C@H]3CC[C@]12C [cholesterol],554 mRNA expression,554 mRNA,down-regulated
same,112091 expression,112091,down-regulated
same,6169 mRNA downregulated,6169 mRNA [2],1.3 fold
same,43969 expression,43969,downregulated
same,9325 mRNA downregulated,9325 mRNA,1.8 fold
same,17729 mRNA expression,17729 mRNA,downregulated
same,9235 mRNA downregulated,9235 mRNA,1.3 fold
same,10653 mRNA downregulated,10653 mRNA [3],1.5 fold
same,19319 mRNA expression,19319 mRNA,downregulated
same,2569654 mRNA expression,2569654 mRNA [4],significantly downregulated
same,10653 mRNA downregulated,10653 mRNA [5],1.3 fold
same,54946 mRNA downregulated,54946 mRNA,0.62 fold
CN[C@H]1CCc2cc(OC)c(OC)c(OC)c2-c2ccc(OC)c(=O)cc21 [demecolcine],vasoconstriction,isolated rat arterioles,32.7%
Cc1ccc(C)c(OCCCC(C)(C)C(=O)O)c1 [gemfibrozil],10653 mRNA expression,10653 mRNA [6],downregualted
same,10102 mRNA expression,10102 mRNA,significantly upregulated
same,9123 mRNA expression,9123 mRNA,upregulated
same,8701 mRNA expression,8701 mRNA,upregulated
same,7301 mRNA expression,7301 mRNA,down-reregulated
O=C(O)c1cccnc1 [niacin],9462 mRNA expression,9462 mRNA,upregulated
same,10102 mRNA expression,10102 mRNA,significantly upregulated
same,2569654 mRNA expression,2569654 mRNA [7],upregulated
same,3533 mRNA expression,3533 mRNA,significantly downregulated
COC(=O)Nc1nc2ccc(C(=O)c3cccs3)cc2[nH]1 [nocodazole],vascular tension and intracellular calcium levels,coronary arteries,increases
same,vasoconstriction,isolated rat arterioles,29.6%
CC(C)(Sc1cc(C(C)(C)C)c(O)c(C(C)(C)C)c1)Sc1cc(C(C)(C)C)c(O)c(C(C)(C)C)c1 [probucol],10653 mRNA expression,10653 mRNA [6],downregualted
same,10102 mRNA expression,10102 mRNA,significantly upregulated
same,9123 mRNA expression,9123 mRNA,upregulated
same,2552 mRNA expression,2552 mRNA,upregulated
same,9380 mRNA expression,9380 mRNA,upregulated
same,7301 mRNA expression,7301 mRNA,down-reregulated
IL-1β,1261 expression in response to angiogenic/inflammatory stimuli,1261 mRNA,transient upregulation
TNF-α,1261 expression in response to angiogenic/inflammatory stimuli,1261 mRNA,transient upregulation
VEGF,1261 expression in response to angiogenic/inflammatory stimuli,1261 mRNA,transient upregulation
same,"1261 mRNA expression, timecourse","1261 mRNA; 1 hour of treatment, statically cultured or shear-stressed cells",strong upregulation
same,1261 mRNA expression,1261 mRNA; VEGF individually,upregulated
cholesystkinin-8 [CCK-8],reduction of triacylglycerol secretion,isolated hepatocytes,53%
interferon gamma,phosphorylation of the serine/threonine kinase Akt,[8],induces
same,261 mRNA expression,261 mRNA,downregulated
same,9035 mRNA expression,9035 mRNA,upregulated
same,12282 mRNA expression,12282 mRNA,upregulated
same,Syk expression,Syk,No apparent upregulation
same,33556 mRNA expression,33556 mRNA,upregulated

# Source: patent US20050037946A1, “Methods and compositions for treating cardiovascular disease using 1722, 10280, 59917, 85553, 10653, 9235, 21668, 17794, 2210, 6169, 10102, 21061, 17662, 1468, 12282, 6350, 9035, 1820, 23652, 7301, 8925, 8701, 3533, 9462, 9123, 12788, 17729, 65552, 1261, 21476, 33770, 9380, 2569654, 33556, 53656, …” (Millennium Pharmaceuticals, Inc., priority 2003, published 2005)
